Laboratory results taken from publication PMC4686834, “Autocrine selection of a GLP-1R G-protein biased agonist with potent antidiabetic effects” (Nature Communications, 2015).
*1 amine or outer side, *2 acyl side, *3 side chain or, on linkers, in order; H or OH if unused. Where a SMILES comes first, the peptide text is derived from it. Bridges are numbered along the chain shown (N, C = ends). [ ]: non-standard residue; d: D form. The star is where a group is joined. Leu(3R-OH,Nα-propionyl) = CCC(=O)N[C@H](C(=O)*)[C@H](O)C(C)C; X1 = CC(C)[C@@H](O[*:3])[C@H](N[*:1])C(=O)[*:2]; NMeT = CN[C@H](C(=O)O)[C@@H](C)O; dPhLac = O=C(O)[C@H](O)Cc1ccccc1; NMeA = CN[C@@H](C)C(=O)O; NMeDha = C=C(NC)C(=O)O

How the values were obtained:
[1] = molecular target: T1, human GLP-1R (Homo sapiens, UniProt P43220); experiment: Intracellular calcium mobilization (Gαq), FLIPR, CHO cells expressing the human GLP-1R; assay type: cell-based; conditions: 1 μM FR900359 in loading medium; CHO-GLP-1R expressing cells
T1 construct: expressed in transfected cells
T1 sequence (P43220 24-463): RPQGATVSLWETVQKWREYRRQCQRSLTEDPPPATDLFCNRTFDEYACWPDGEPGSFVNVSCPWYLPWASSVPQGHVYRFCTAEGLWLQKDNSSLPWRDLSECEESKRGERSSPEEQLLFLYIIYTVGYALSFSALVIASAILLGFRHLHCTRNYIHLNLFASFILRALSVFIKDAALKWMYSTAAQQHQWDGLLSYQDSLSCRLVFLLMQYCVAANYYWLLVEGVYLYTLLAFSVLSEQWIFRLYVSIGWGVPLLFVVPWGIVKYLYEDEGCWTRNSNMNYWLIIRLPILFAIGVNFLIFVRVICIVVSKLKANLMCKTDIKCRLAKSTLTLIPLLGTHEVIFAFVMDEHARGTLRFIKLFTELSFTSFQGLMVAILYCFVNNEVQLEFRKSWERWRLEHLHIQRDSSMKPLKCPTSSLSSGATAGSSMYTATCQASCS
Procedure: The stable CHO cell line (generated in-house using CHO-K1 cell line purchased from ATCC) expressing a functional human GLP-1R was cultured in F12 medium (Gibco) supplemented with 10% fetal bovine serum and 500 μg ml^−1 geneticin.

[2] = test system: human GLP-1R; experiment: Ligand bias, equiactive comparison with Ex4 as reference; assay type: cell-based

In the case of `C=C1C(=O)N[C@@H](C)C(=O)N(C)[C@@H](C)C(=O)N[C@@H]([C@H](OC(=O)[C@@H](NC(=O)CC)[C@H](O)C(C)C)C(C)C)C(=O)N(C)[C@@H]([C@@H](C)OC)C(=O)O[C@H](C(C)C)[C@H](NC(C)=O)C(=O)O[C@H](Cc2ccccc2)C(=O)N1C` [FR900359] (Ac-[X1][dPhLac][NMeDha]A[NMeA][X1](Leu(3R-OH,Nα-propionyl))[NMeT](Me); ester 1-C), the “Inhibition of P5-induced increase in [Ca2+]i” value [1] is reported as “inhibited”.

With `CC[C@H](C)[C@H](NC(=O)[C@H](Cc1ccccc1)NC(=O)[C@H](CCC(=O)O)NC(=O)[C@H](CCCCN)NC(=O)[C@H](C)NC(=O)[C@H](C)NC(=O)[C@H](CCC(N)=O)NC(=O)CNC(=O)[C@H](CCC(=O)O)NC(=O)[C@H](CC(C)C)NC(=O)[C@H](Cc1ccc(O)cc1)NC(=O)[C@H](CO)NC(=O)[C@H](CO)NC(=O)[C@@H](NC(=O)[C@H](CC(=O)O)NC(=O)[C@H](CO)NC(=O)[C@@H](NC(=O)[C@H](Cc1ccccc1)NC(=O)[C@@H](NC(=O)CNC(=O)[C@H](CCC(=O)O)NC(=O)[C@H](C)NC(=O)[C@@H](N)Cc1c[nH]cn1)[C@@H](C)O)[C@@H](C)O)C(C)C)C(=O)N[C@@H](C)C(=O)N[C@@H](Cc1c[nH]c2ccccc12)C(=O)N[C@@H](CC(C)C)C(=O)N[C@H](C(=O)N[C@@H](CCCCN)C(=O)NCC(=O)N[C@@H](CCCNC(=N)N)C(N)=O)C(C)C` [GLP-1, glucagon-like peptide-1] the “Ligand bias (in words)” value [2] was “did not demonstrate detectable bias”, the “Bias factor (β), Gq vs β-arrestin 1” value ([2]; mean ± s.d.) was 0.16 ± 0.13 and the “Bias factor (β), Gq vs β-arrestin 2” value ([2]; mean ± s.d.) was 0.2 ± 0.08. For the same compound, the “Bias factor (β), Gs vs β-arrestin 2” value ([2]; mean ± s.d.) was -0.04 ± 0.11 and the “Bias factor (β), Gs vs β-arrestin 1” value ([2]; mean ± s.d. of a typical experiment performed three times) was -0.08 ± 0.11.
